Experimental findings from publication PMC8428802 (Journal of medicinal chemistry, 2020) are described below.

Bounds are passed on as bounds.

Data set [1] concerns the target over 30 brain receptors or channels. The data set can be described thus: NIMH-PDSP broad-panel counter screening. It is filed as binding. The conditions noted are these: 10 μM. (In general: Counterscreens check selectivity or assay interference.)
Data set [2] concerns HEK293 cells lacking GPR52. The data set can be described thus: cAMP control study in HEK293 cells lacking GPR52. It is filed as cell-based, human.
For a further data set, the target named is hERG (Homo sapiens, UniProt Q12809). The data set can be described thus: NIMH-PDSP counter screening, hERG binding. The settings on record: 10 μM.
The target of a further data set is human GPR52 (Homo sapiens, UniProt Q9Y2T5). The data set can be described thus: Glosensor cAMP assay in HEK293 cells transiently expressing human GPR52. It is filed as cell-based. The conditions noted are these: for decreased EC50 (loss of potency): comparator not stated. For orientation: Cyclic AMP is a second messenger, typically raised through Gs and lowered through Gi signalling.
Sequence of human GPR52 (Q9Y2T5 whole entry): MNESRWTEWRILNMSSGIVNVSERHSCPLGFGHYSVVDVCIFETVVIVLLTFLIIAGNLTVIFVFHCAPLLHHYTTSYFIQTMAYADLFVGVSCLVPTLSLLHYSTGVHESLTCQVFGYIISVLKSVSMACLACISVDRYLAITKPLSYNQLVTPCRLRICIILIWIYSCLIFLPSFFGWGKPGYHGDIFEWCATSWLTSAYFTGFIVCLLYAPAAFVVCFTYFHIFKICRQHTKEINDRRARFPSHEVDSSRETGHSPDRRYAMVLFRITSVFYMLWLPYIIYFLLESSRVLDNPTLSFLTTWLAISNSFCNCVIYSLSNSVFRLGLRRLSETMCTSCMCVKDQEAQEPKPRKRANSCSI

Sequence of hERG (Q12809 whole entry): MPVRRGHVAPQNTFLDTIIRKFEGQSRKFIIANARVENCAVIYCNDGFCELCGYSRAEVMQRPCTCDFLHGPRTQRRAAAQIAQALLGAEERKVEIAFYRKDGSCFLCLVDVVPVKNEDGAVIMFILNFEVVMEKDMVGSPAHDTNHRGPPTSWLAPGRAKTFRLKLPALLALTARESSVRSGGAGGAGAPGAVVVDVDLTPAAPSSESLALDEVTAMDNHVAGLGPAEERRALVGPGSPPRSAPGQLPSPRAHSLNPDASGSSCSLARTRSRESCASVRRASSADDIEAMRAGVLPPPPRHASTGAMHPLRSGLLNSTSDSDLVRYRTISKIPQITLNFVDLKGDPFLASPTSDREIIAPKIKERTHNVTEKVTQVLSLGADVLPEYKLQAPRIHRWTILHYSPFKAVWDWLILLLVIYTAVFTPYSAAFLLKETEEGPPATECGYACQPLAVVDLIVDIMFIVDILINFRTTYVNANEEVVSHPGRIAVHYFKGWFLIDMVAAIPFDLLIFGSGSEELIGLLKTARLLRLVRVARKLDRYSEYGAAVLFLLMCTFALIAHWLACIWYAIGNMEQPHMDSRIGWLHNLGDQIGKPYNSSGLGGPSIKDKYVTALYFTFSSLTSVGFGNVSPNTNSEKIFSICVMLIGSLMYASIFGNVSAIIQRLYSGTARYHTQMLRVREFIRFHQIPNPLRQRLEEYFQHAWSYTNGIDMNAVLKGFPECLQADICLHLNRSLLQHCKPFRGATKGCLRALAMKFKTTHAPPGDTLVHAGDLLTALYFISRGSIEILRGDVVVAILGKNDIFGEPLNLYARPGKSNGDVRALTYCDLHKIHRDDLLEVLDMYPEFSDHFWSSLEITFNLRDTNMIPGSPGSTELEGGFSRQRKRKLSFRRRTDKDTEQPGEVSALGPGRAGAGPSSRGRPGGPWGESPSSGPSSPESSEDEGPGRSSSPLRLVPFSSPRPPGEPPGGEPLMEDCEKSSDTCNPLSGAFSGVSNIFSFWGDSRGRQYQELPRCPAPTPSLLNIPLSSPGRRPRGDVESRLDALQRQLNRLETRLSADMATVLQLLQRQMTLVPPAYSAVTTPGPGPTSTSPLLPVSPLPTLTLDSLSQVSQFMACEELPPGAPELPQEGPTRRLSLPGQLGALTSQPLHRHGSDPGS

As for `O=C(NCCO)c1cccc2c1CCN2c1cc(Cc2cc(F)cc(C(F)(F)F)c2)ncn1` [Compound 12c, 1-(6-(3-Fluoro-5-(trifluoromethyl)benzyl)pyrimidin-4-yl)-N-(2-hydroxyethyl)indoline-4-carboxamide], the “binding affinity (Ki) at panel” value in data set [1] is on record as “no significant binding affinity”. Moreover, the “cAMP increase in cells lacking GPR52” value in data set [2] is listed as “did not increase cAMP”. In addition, at hERG, the “hERG potassium channel binding activity” value is “did not show any”.

As for `Cc1c(Cc2cc(F)cc(C(F)(F)F)c2)cnnc1N1CCc2c(C(=O)NCCO)cccc21` [Compound 12e, 1-(5-(3-Fluoro-5-(trifluoromethyl)benzyl)-4-methylpyridazin-3-yl)-N-(2-hydroxyethyl)indoline-4-carboxamide], at human GPR52, the “decreased EC50 (loss of potency)” value is on record as more than 4 fold.

For `O=C(NCCO)c1cccc2c1CCN2c1nncc(Cc2cc(F)cc(C(F)(F)F)c2)c1Cl` [Compound 12f, 1-(4-Chloro-5-(3-fluoro-5-(trifluoromethyl)benzyl)-pyridazin-3-yl)-N-(2-hydroxyethyl)indoline-4-carboxamide], the “decreased EC50 (loss of potency)” value on human GPR52 is given as more than 4 fold.

`O=C(NCCO)c1cccc2c1CCN2c1cc(Cc2ccccc2C(F)(F)F)ncn1` [Compound 23b, N-(2-Hydroxyethyl)-1-(6-(2-(trifluoromethyl)benzyl)-pyrimidin-4-yl)indoline-4-carboxamide]: the “loss of potency relative to 23a” value at human GPR52 (EC50 vs compound 23a) is given as more than 7 fold.
